For one assay, the target named is PIK3CA (human) (UniProt P42336). The assay can be described thus: Assessment of PIK3CA Kinase Activity.
Assay [1] deals with PIK3CG;PIK3CA (human) (UniProt P48736). Put plainly: Assessment of Antiproliferation Activity in LNCaP Cells.
For the next assay, the target named is PIK3CG (human) (UniProt P48736). Put plainly: Assessment of PIK3CG Kinase Activity.
In assay [2] the target is PIK3CG;PIK3CA (human) (UniProt P48736). Put plainly: Assessment of Antiproliferation Activity in PC3-MM2 Cells. As to conditions: pc3mm2.
For assay [3] the target is unchanged. Put plainly: Assessment of Antiproliferation Activity in MDA-MB-361 Cells.

Values joined by “and” are separate entries in the source; they are usually repeats but may differ in a detail not shown here. Identical values can stand only once.

Chain of PIK3CG;PIK3CA (human) (P48736 whole entry, looked up): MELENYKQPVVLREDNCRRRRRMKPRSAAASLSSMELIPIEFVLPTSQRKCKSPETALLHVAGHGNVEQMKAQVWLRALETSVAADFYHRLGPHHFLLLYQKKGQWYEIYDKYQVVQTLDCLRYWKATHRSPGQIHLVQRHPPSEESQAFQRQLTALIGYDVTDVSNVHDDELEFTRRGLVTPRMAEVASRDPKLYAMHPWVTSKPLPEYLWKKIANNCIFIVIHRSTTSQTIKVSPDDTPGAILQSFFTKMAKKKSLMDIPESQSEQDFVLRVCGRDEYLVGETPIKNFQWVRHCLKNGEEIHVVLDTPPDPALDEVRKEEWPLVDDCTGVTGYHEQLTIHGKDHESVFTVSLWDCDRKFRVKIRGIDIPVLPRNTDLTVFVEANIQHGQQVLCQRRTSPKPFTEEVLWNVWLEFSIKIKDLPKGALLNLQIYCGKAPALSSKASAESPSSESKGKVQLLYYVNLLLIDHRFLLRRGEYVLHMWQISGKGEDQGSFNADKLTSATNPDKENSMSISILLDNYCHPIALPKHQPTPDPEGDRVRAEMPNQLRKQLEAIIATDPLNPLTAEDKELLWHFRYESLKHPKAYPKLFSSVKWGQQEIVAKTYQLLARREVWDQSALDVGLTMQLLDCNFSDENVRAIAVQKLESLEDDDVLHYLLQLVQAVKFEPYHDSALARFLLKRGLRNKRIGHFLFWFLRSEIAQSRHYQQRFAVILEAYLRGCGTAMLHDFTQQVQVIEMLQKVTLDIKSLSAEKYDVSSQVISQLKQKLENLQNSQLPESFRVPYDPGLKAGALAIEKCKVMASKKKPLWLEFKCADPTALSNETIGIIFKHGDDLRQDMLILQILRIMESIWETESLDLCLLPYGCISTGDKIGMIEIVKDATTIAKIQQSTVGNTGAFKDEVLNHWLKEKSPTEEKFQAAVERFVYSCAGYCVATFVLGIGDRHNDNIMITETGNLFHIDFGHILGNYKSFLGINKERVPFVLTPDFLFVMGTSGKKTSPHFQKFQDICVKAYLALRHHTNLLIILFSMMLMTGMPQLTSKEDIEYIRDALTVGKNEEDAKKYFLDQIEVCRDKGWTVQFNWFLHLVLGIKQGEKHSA
Chain of PIK3CG (human) (P48736 whole entry, looked up): as above
Chain of PIK3CA (human) (P42336 whole entry, looked up): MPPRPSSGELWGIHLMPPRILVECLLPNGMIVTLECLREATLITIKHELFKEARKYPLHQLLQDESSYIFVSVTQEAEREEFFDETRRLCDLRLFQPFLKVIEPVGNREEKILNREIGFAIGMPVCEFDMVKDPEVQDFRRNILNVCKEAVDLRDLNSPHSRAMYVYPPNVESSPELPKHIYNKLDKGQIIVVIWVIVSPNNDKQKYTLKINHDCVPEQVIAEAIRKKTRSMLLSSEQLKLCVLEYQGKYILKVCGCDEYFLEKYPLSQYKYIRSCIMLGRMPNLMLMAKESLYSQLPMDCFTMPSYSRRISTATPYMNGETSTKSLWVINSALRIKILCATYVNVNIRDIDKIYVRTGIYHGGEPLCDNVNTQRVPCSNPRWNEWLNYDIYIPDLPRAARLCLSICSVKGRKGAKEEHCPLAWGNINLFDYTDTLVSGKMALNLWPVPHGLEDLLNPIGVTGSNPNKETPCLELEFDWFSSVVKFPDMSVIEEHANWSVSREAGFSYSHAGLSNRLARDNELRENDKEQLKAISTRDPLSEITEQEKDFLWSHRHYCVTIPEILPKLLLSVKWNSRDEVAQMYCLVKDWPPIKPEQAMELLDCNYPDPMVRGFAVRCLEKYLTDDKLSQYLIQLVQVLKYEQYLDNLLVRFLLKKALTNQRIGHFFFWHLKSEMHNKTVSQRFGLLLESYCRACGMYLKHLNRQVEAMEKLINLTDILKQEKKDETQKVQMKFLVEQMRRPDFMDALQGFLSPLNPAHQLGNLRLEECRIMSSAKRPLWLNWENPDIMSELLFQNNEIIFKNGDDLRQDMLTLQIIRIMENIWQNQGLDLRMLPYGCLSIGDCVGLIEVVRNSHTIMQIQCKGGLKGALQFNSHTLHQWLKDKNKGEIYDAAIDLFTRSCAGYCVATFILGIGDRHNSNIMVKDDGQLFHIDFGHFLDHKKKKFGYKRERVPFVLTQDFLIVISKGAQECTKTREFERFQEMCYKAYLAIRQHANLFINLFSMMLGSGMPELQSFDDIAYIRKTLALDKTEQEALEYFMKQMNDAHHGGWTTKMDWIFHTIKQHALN

Broadly, the IC50 is the midpoint of a concentration-inhibition curve. The low end stands for greater potency in that assay, the high end for weaker potency in that assay. In the case of `CN1CCC(Nc2ccc(NC(=O)Nc3ccc(-c4nc(N5C6CCC5COC6)nc(N5C6CCC5COC6)n4)cc3)cc2)CC1`, the figures for the IC50 against PIK3CA (human) and in the assay with PIK3CG;PIK3CA (human) [1] were 6.34 µM and 0.003 µM, respectively.
Regarding `O=C(Nc1ccc(NCCO)cc1)Nc1ccc(-c2nc(N3C4CCC3COC4)nc(N3C4CCC3COC4)n2)cc1`, the figures for the IC50 on PIK3CG (human), at PIK3CA (human) and in the assay with PIK3CG;PIK3CA (human) [1] were 8.04 µM, 1.47 µM and 0.07 µM, respectively.
Turning to `CN(C)CCN(C)C(=O)c1ccc(NC(=O)Nc2ccc(-c3nc(N4CCC4)nc(N4CCOCC4)n3)cc2)cc1`, the half-inhibitory concentration (IC50) on PIK3CG (human) stood at 0.036 µM; on PIK3CA (human), 0.002 µM.
Consider `CN(C)CCN(C)c1ccc(NC(=O)Nc2ccc(-c3nc(N4C5CCC4COC5)nc(N4C5CCC4COC5)n3)cc2)cc1`, for which the IC50 on PIK3CA (human) is 6.03 µM; with PIK3CG;PIK3CA (human) [1] it was 0.0022 µM.
As to `Cc1ccc(-c2nc(-c3ccc(NC(=O)Nc4ccc(C(=O)N5CCCC5)cc4)cc3)nc(N3CCOCC3)n2)cc1`, the IC50 was found to be 0.522 µM with PIK3CG;PIK3CA (human) [2], 0.113 µM with PIK3CG;PIK3CA (human) [3], 0.072 µM on PIK3CG (human) and 0.0125 µM against PIK3CA (human).
For `CC(C)N1CCN(C(=O)c2ccc(NC(=O)Nc3ccc(-c4nc(N5CCCCC5)nc(N5CCOCC5)n4)cc3)cc2)CC1`, the IC50 with PIK3CG;PIK3CA (human) [2] was 0.193 µM; with PIK3CG;PIK3CA (human) [3], 0.043 µM; against PIK3CG (human), 0.0585 µM.
As to `O=C(Nc1ccc(-c2nc(OCCN3CCCCC3)nc(N3CC4CCC(C3)O4)n2)cc1)Nc1cccnc1`, the 50% inhibitory concentration (IC50) against PIK3CG (human) turned out to be 10 µM.
The compound `CNC(=O)Nc1ccc(-c2nc(N3CC4CCC(C3)O4)nc(N3CC4CCC(C3)O4)n2)cc1` registered an IC50 against PIK3CG (human) of 10 µM.
Consider `CC(C)N1CCN(C(=O)c2ccc(NC(=O)Nc3ccc(-c4nc(C5CCOCC5)nc(N5CCOCC5)n4)cc3)cc2)CC1`, for which the IC50 against PIK3CG (human) came out at 0.0095 µM; on PIK3CA (human), 0.0032 µM.
As for `CN1CCN(c2ccc(NC(=O)Nc3ccc(-c4nc(N5C6CCC5COC6)nc(N5[C@H](CO)CC[C@@H]5CO)n4)cc3)cc2)CC1`, at PIK3CG (human), the concentration for half-maximal inhibition (IC50) stood at 10 µM.
Regarding `CN(C)CCNC(=O)c1ccc(NC(=O)Nc2ccc(-c3nc(N4CCCCC4)nc(N4CCOCC4)n3)cc2)cc1`, the results for the concentration for half-maximal inhibition (IC50) against PIK3CG (human) and on PIK3CA (human) were 0.0575 µM and 0.0035 µM, respectively.
As for `NCCCNc1nc(-c2ccc(NC(=O)Nc3cccnc3)cc2)nc(N2CC3CCC(C2)O3)n1`, the IC50 on PIK3CG (human) stood at 10 µM. This lies in the double-digit micromolar range.
In the case of `O=C(Nc1ccc(-c2nc(N3C4CCC3COC4)nc(N3C4CCC3COC4)n2)cc1)N1CCNCC1`, the IC50 at PIK3CG (human) was found to be 10 µM.
For the compound `FC(F)c1nc2ccccc2n1-c1nc(N2CCOCC2)nc(N2CC3CCC(C2)O3)n1`, the half-maximal inhibitory concentration (IC50) amounted to 0.043 µM at PIK3CG (human) and 0.024 µM at PIK3CA (human).
Take `Cc1ccc(-c2nc(-c3ccc(NC(=O)Nc4cccc(C(=O)N5CCC(N(C)C)CC5)c4)cc3)nc(N3CCOCC3)n2)cc1`: the IC50 at PIK3CG (human) stood at 0.658 µM; against PIK3CA (human), 0.462 µM.
As to `CN(C)CCN(C)C(=O)c1ccc(NC(=O)Nc2ccc(-c3nc(C4CCOCC4)nc(N4CCOCC4)n3)cc2)cc1`, the 50% inhibitory concentration (IC50) at PIK3CA (human) worked out at 0.0008 µM.
As to `COCCNc1ccc(NC(=O)Nc2ccc(-c3nc(N4C5CCC4COC5)nc(N4C5CCC4COC5)n3)cc2)cc1`, the IC50 on PIK3CG (human) was found to be 7.14 µM; against PIK3CA (human), 1.1 µM; with PIK3CG;PIK3CA (human) [1], 0.0012 µM.
For `O=C(Nc1ccc(C(=O)NCCN2CCCC2)cc1)Nc1ccc(-c2nc(O[C@H]3CCOC3)nc(N3CCOCC3)n2)cc1`, the IC50 in the assay with PIK3CG;PIK3CA (human) [2] was found to be 0.027 µM.
For `CN(C)C1CCN(c2ccc(NC(=O)Nc3ccc(-c4nc(N5C6CCC5COC6)nc(N5C6CCC5COC6)n4)cc3)cc2)CC1`, the values for the IC50 at PIK3CA (human) and with PIK3CG;PIK3CA (human) [1] were 3.09 µM and 0.001 µM, respectively.
Regarding `CC(C)Nc1nc(-c2ccc(NC(=O)NCCO)cc2)nc(N2CC3CCC(C2)O3)n1`, at PIK3CG (human), the 50% inhibitory concentration (IC50) was found to be 10 µM.
Still for that read-out and setting: with `O=C(Nc1ccc(-c2nc(NCCO)nc(N3CC4CCC(C3)O4)n2)cc1)Nc1cccnc1` the figure was 10 µM.
Same read-out and setting: with `CC(C)Nc1nc(-c2ccc(NC(=O)NC3CC3)cc2)nc(N2CC3CCC(C2)O3)n1` the figure was 10 µM.
Take `O=C(Nc1ccc(-c2nc(N3C[C@@H]4C[C@H]3CO4)nc(N3C[C@@H]4C[C@H]3CO4)n2)cc1)Nc1ccc(N2CCNCC2)cc1`: the half-maximal inhibitory concentration (IC50) with PIK3CG;PIK3CA (human) [1] stood at 0.1 µM.
For the compound `Nc1ccc(-c2nc(-c3ccc(NC(=O)Nc4cccnc4)cc3)nc(N3CC4CCC(C3)O4)n2)cc1`, the half-inhibitory concentration (IC50) came to 0.832 µM on PIK3CA (human) and 0.29 µM with PIK3CG;PIK3CA (human) [1].
The compound `O=C(O)CNC1CCN(c2nc(-c3ccc(NC(=O)Nc4ccncc4)cc3)nc(N3CC4CCC(C3)O4)n2)CC1` returned a half-inhibitory concentration (IC50) on PIK3CG (human) of 10 µM.
Regarding `CCN(CC)C(=O)[n+]1ccc(NC(=O)Nc2ccc(-c3nc(N4CCOCC4)nc(N4C5CCC4COC5)n3)cc2)cc1`, the half-inhibitory concentration (IC50) is 0.444 µM and 0.606 µM at PIK3CG (human); 0.036 µM and 0.028 µM on PIK3CA (human).
For the compound `CC(C)Nc1nc(-c2ccc(NC(=O)Nc3ccc(N4CCN(C)CC4)nc3)cc2)nc(N2CC3CCC(C2)O3)n1`, the concentration for half-maximal inhibition (IC50) on PIK3CG (human) worked out at 7.03 µM; at PIK3CA (human) it was 0.521 µM; with PIK3CG;PIK3CA (human) [1], 0.05 µM.
Take `O=C(Nc1ccncc1)Nc1ccc(-c2nc(N3CCC(N4CCOCC4)CC3)nc(N3CC4CCC(C3)O4)n2)cc1`: the half-maximal inhibitory concentration (IC50) at PIK3CG (human) turned out to be 4 µM; against PIK3CA (human), 1.85 µM; in the assay with PIK3CG;PIK3CA (human) [1], 1 µM.
As to `CN1CCCN(c2nc(-c3ccc(NC(=O)Nc4cccnc4)cc3)nc(N3CC4CCC(C3)O4)n2)C1`, on PIK3CG (human), the IC50 is 10 µM.
As to `CN(C)CCOc1ccc(NC(=O)Nc2ccc(-c3nc(N4CCSCC4)nc(N4C5CCC4COC5)n3)cc2)cc1`, the half-maximal inhibitory concentration (IC50) on PIK3CG (human) came out at 2.43 µM; on PIK3CA (human), 0.586 µM.
For `FC(F)c1nc2ccccc2n1-c1nc(N2CC3CCC(C2)O3)nc(N2CC3CCC(C2)O3)n1`, in that order: 0.459 µM and 0.123 µM.
Turning to `O=C(Nc1ccc(C(=O)Cc2ccccn2)cc1)Nc1ccc(-c2nc(N3CCOCC3)nc(N3CCOCC3)n2)cc1`, the half-maximal inhibitory concentration (IC50) was found to be 0.031 µM with PIK3CG;PIK3CA (human) [2], 0.068 µM with PIK3CG;PIK3CA (human) [3], 0.023 µM against PIK3CG (human) and 0.003 µM at PIK3CA (human).
Consider `C[C@H]1COCCN1c1nc(-c2ccc(NC(=O)Nc3ccc(C(=O)NCCN4CCCC4)cc3)cc2)nc(N2CCOC[C@@H]2C)n1`, for which the IC50 with PIK3CG;PIK3CA (human) [2] is 0.106 µM; with PIK3CG;PIK3CA (human) [3], 0.026 µM; at PIK3CG (human) it was 0.378 µM; on PIK3CA (human), 0.022 µM.
On to `CN(C)C1CCN(C(=O)c2ccc(NC(=O)Nc3ccc(-c4nc(-c5ccccc5)nc(N5CCOCC5)n4)cc3)cc2)CC1`, for which the IC50 in the assay with PIK3CG;PIK3CA (human) [2] was found to be 0.253 µM; with PIK3CG;PIK3CA (human) [3], 0.058 µM; against PIK3CG (human), 0.0205 µM; against PIK3CA (human), 0.0035 µM.

Values taken from the Kinase Knowledgebase extract (Sharma et al. 2016).
